Source: patent US20220313640A1 (Concert Pharmaceuticals, Inc., priority 2019, published 2022)
Like-named read-outs stand apart in the source and are kept apart here. One block for each compound: values may come before it.

How the values were obtained:
[1] = Nephrotoxicity of Compound 100 and non-deuterated D-serine in male Sprague-Dawley rats, 150 mg/kg PO (BUN, creatinine, GGT); format: in vivo
Text: (§1) The pharmacokinetic profile of Compound 100 was investigated in male Sprague-Dawley rats compared with that of non-deuterated D-serine. […] Plasma was collected and analyzed for Compound 100 and non-deuterated D-Serine. Additional blood was collected and analyzed for the full clinical chemistry profile.

[2] = Nephrotoxicity dose response of non-deuterated D-serine in male Sprague-Dawley rats, 30-300 mg/kg PO; format: in vivo; conditions: 24 hr samples at the 150 and 300 mg/kg doses, compared to control and reference values
Text: (§2) The pharmacokinetic profile of non-deuterated D-serine was investigated in male Sprague-Dawley rats. […] Plasma was collected and analyzed for the non-deuterated D-serine. Additional blood was collected and analyzed for the full clinical chemistry profile.

[3] = Pharmacokinetics dose response of non-deuterated D-serine in male Sprague-Dawley rats, 30-300 mg/kg PO; format: in vivo; conditions: rat, plasma; for Tmax: po
Text: as §2

[4] = Randomized single dose crossover plasma PK of Compound 100 versus D-serine in healthy volunteers; format: in vivo, human; conditions: for Tmax / AUC(0-inf) / Cmax / half-life: human, plasma; for Tmax / AUC(0-inf) / Cmax / half-life / CL/F: single 0.25 g oral solution, fasted, N = 11; for AUC(0-inf) / Cmax / half-life / CL/F: mean
Experimental: Thirteen healthy volunteers between the ages of 18 to 55 were enrolled in the study. […] Period 1 dosing occurred within 14 days of screening. […] Similarly, in Period 2, the 2 subjects in the sentinel group received the alternate treatment after a 4-day washout and approximately 2 days prior to the remaining subjects receiving their Period 2 dose. […] Water consumption was restricted from 1 hour prior to dosing until 1 hour after dosing. Subjects fasted for approximately 3 hours after dosing and remained upright or semi-supine during this period. A meal was provided 3-4 hours after the dose. Meal times and contents were standardized until the last blood sample was collected for PK assessments. […] Plasma samples were stored in labeled tubes at approximately -80° C.

[5] = Pharmacokinetics of deuterated and non-deuterated D-serine in male Sprague Dawley rats, PO 10 mg/kg; format: in vivo; conditions: rat, 0.5% Methylcellulose, plasma
Experimental: Three rats were used for each group. Blood was collected at the following time points: for IV dosing: pre-dose, 0.05, 0.167, 0.5, 1, 2, 4, 6, 8 and 12 hours post-dose; for PO dosing: pre-dose, 0.25, 0.5, 1, 2, 4, 6, 8 and 12 hours post-dose PO. Urine was collected at pre-dose (minimum 12 hours), 0-6, 6-12 and 12-24 hours. Plasma samples were analyzed and quantified for dosed compound LC-MS/MS.

[6] = Nephrotoxicity comparison of Compound 100 and non-deuterated D-serine at doses from 150 mg/kg to 750 mg/kg; format: in vivo, rats; conditions: for changes in BUN or creatinine: doses from 150 mg/kg to 750 mg/kg PO
[7] = molecular target: T1, human NMDAR subunits GluN1 and GluN2A (Homo sapiens, UniProt Q05586); test: NMDA receptor activation in automated patch clamp system (ScreenPatch), HEK293 cells; format: cell-based; conditions: 0.003 to 10 μM, Compound 100 versus D-serine
T1 construct: expressed in transfected cells; host or cells: HEK293
Experimental: Peak current and steady state current were measured. The activity at the NMDA receptor was indistinguishable for the two compounds.

[8] = Pharmacokinetic profile of Compound 100 versus non-deuterated D-serine in male Sprague-Dawley rats, 150 mg/kg PO; format: in vivo; conditions: fasted, plasma, mean
Text: as §1

[9] = Pharmacokinetics of non-deuterated D-serine in male Sprague-Dawley rats, 300 mg/kg PO; format: in vivo; conditions: rat, mean
Experimental: (§3) The hippocampus, cortex and plasma were collected and analyzed. Additional blood was collected and were analyzed for the full clinical chemistry profile. Urine was also collected and examined for glucose and total protein. […] The mean plasma, hippocampus, and cortex concentration at 1 hour are 19200 ng/mL, 674 ng/g, and 754 ng/g; respectively. The mean plasma, hippocampus, and cortex concentrations at 8 hours were 11250 ng/mL, 17725 ng/g, and 11875 ng/g, respectively. […] Blood urea nitrogen and creatinine levels were elevated.

[10] = Nephrotoxicity of non-deuterated D-serine at 300 mg/kg in male Sprague-Dawley rats (clinical chemistry, urine); format: in vivo; conditions: 300 mg/kg PO
Experimental: as §3

[11] = Safety and tolerability in single dose crossover study in healthy volunteers; format: in vivo, human; conditions: single 0.25 g oral dose
Text: Thirteen healthy volunteers between the ages of 18 to 55 were enrolled in the study.
Period 1 dosing occurred within 14 days of screening.

[12] = Single Ascending Dose (SAD) study plasma PK in healthy volunteers; format: in vivo, human; conditions: for half-life / AUC(0-inf) / Cmax / Tmax: human, plasma; for Tmax: median
Experimental: (§4) The 0.5, 2, 3, and 4 g doses were evaluated under fasted conditions (after an overnight fast) while the 1 g dose was evaluated under both fasted and fed conditions (within 30 minutes of consumption of a meal) in a crossover design. […] Blood samples for PK analysis were obtained at several time points after dose administration. Safety assessments included monitoring of adverse events and clinical laboratory testing including monitoring of kidney function.

[13] = Safety and tolerability in SAD and MAD studies; format: in vivo, human
Experimental: as §4, with “function. Neurocognitive effects of CTP-692 using CogScreen® were also explored.” for “function.”

[14] = Pharmacokinetic profile of Compound 100 in male Sprague-Dawley rats: plasma, hippocampus and cortex concentration after 30 mg/kg PO; format: in vivo; conditions: fasted, 1 hr post dose, mean
Experimental: The mean plasma, hippocampus, and cortex concentrations at 1 hour were 19200 ng/mL, 674 ng/g, and 754 ng/g, respectively. The mean plasma, hippocampus, and cortex concentrations at 6 hours were 1780 ng/mL, 1385 ng/g, and 936 ng/g, respectively.

[15] = Multiple Ascending Dose (MAD) study plasma PK, 7 consecutive days; conditions: for AUC(0-inf) / AUC(0-t) / Cmax / Tmax: human, plasma, po
Text: The caloric content of the meal was in accordance with the FDA guidance for food-effect studies.

[16] = 150 mg/kg PO, fasted, mean (CV %)
[17] = dose escalation 150 mg/kg to 750 mg/kg
[18] = po, 0.5 g, 0.5 g single oral dose, fasted, arithmetic mean
[19] = po, 1 g, 1 g (fed) single oral dose, arithmetic mean
[20] = po, 1 g, 1 g single oral dose, fasted, arithmetic mean
[21] = po, 2 g, 2 g single oral dose, fasted, arithmetic mean
[22] = po, 3 g, 3 g single oral dose, fasted, arithmetic mean
[23] = po, 4 g, 4 g single oral dose, fasted, arithmetic mean

AUC(0-inf) [3, 16]: 349 µg·h/mL
Cmax [3, 16]: 180000 ng/mL
Tmax ([3]; 30 mg/kg, 30 mg/kg PO, fasted, mean): 0.5 h
Tmax ([3]; 75 mg/kg, 75 mg/kg PO, fasted, mean): 0.5 h
Tmax ([3]; 100 mg/kg, 100 mg/kg PO, fasted, mean): 0.5 h
Tmax ([3]; 150 mg/kg, 150 mg/kg PO, fasted, mean): 0.3 h
Tmax ([3]; 300 mg/kg, 300 mg/kg PO, fasted, mean): 0.5 h
Tmax ([3]; 300 mg/kg, all doses 30, 75, 100, 150, and 300 mg/kg PO): 0.3 to 0.5 h
Tmax [4]: 1 h
AUC(0-inf) [4]: 32.5 µg·h/mL
Cmax [4]: 4090 ng/mL
half-life [4]: 17.2 h
CL/F [4]: 7.9 L/h
Tmax [5]: 0.417 h
activity at the NMDA receptor (peak current and steady state current) [7]: indistinguishable
AUC(0-inf) ([8]; male, Sprague-Dawley, rat): 349 µg·h/mL
Cmax ([8]; male, Sprague-Dawley, rat, read-out: Cmax): 180000 ng/mL
concentration at 8 h ([9]; cortex, endogenous level not subtracted, read-out: Cortex concentration): 11900 ng/g
Tmax ([9]; fasted, plasma): 0.5 h
AUC(0-inf) ([9]; fasted, plasma, endogenous level subtracted): 500 µg·h/mL
concentration at 8 h ([9]; hippocampus, endogenous level not subtracted, read-out: Hippocampus concentration): 17700 ng/g
concentration at 8 h ([9]; plasma, endogenous level subtracted, read-out: Plasma concentration): 11200 ng/mL
SMILES: NC(CO)C(=O)O (stereo in doubt) [Non-deuterated D-Serine, D-serine]
levels of biomarkers of nephrotoxicity [1]: caused an increase
blood urea nitrogen (BUN) level ([1]; 8 hr and 24 hr serum samples): Elevated levels
creatinine level ([1]; 24 hr serum samples): Elevated levels
gamma glutamyl transferase (GGT) level ([1]; 24 hr serum samples): Elevated levels
creatinine level [2]: Elevated levels
gamma glutamyl transferase (GGT) level [2]: Elevated levels
urea nitrogen level [2]: Elevated levels
gross signs of nephrotoxicity [6, 17]: only observed in rats receiving non-deuterated D-serine
changes in BUN or creatinine [6]: increasingly elevated levels
Blood urea nitrogen level [10]: elevated
creatinine level [10]: elevated
glucose in urine [10]: presence of glucose was observed

CL/F ([12]; 0.5 g single oral dose, fasted, arithmetic mean): 6.17 L/h
CL/F ([12]; 1 g (fed) single oral dose, arithmetic mean): 5.99 L/h
CL/F ([12]; 1 g single oral dose, fasted, arithmetic mean): 6.28 L/h
CL/F ([12]; 2 g single oral dose, fasted, arithmetic mean): 6.56 L/h
CL/F ([12]; 3 g single oral dose, fasted, arithmetic mean): 6.68 L/h
CL/F ([12]; 4 g single oral dose, fasted, arithmetic mean): 6.69 L/h
half-life ([12]; oral, SAD and MAD studies, human plasma, read-out: terminal t1/2 (converted)): ~19 h
AUC(0-inf) [12, 18]: 82.2 µg·h/mL
Cmax [12, 18]: 11000 ng/mL
half-life ([12]; po, 0.5 g, 0.5 g single oral dose, fasted, arithmetic mean, read-out: t1/2 (converted)): 15.9 h
Tmax ([12]; po, 0.5 g, 0.5 g single oral dose, fasted): 1 h
AUC(0-inf) [12, 19]: 173 µg·h/mL
Cmax [12, 19]: 15300 ng/mL
half-life ([12]; po, 1 g, 1 g (fed) single oral dose, arithmetic mean, read-out: t1/2 (converted)): 17.9 h
Tmax ([12]; po, 1 g, 1 g (fed) single oral dose): 2 h
AUC(0-inf) [12, 20]: 164 µg·h/mL
Cmax [12, 20]: 22300 ng/mL
half-life ([12]; po, 1 g, 1 g single oral dose, fasted, arithmetic mean, read-out: t1/2 (converted)): 19.2 h
Tmax ([12]; po, 1 g, 1 g single oral dose, fasted): 1 h
AUC(0-inf) [12, 21]: 315 µg·h/mL
Cmax [12, 21]: 46300 ng/mL
half-life ([12]; po, 2 g, 2 g single oral dose, fasted, arithmetic mean, read-out: t1/2 (converted)): 20.2 h
Tmax ([12]; po, 2 g, 2 g single oral dose, fasted): 1 h
AUC(0-inf) [12, 22]: 489 µg·h/mL
Cmax [12, 22]: 69100 ng/mL
half-life ([12]; po, 3 g, 3 g single oral dose, fasted, arithmetic mean, read-out: t1/2 (converted)): 20.6 h
Tmax ([12]; po, 3 g, 3 g single oral dose, fasted): 1 h
AUC(0-inf) [12, 23]: 618 µg·h/mL
Cmax [12, 23]: 96500 ng/mL
half-life ([12]; po, 4 g, 4 g single oral dose, fasted, arithmetic mean, read-out: t1/2 (converted)): 18.4 h
Tmax ([12]; po, 4 g, 4 g single oral dose, fasted): 1 h
Tmax [4]: 1.5 h
AUC(0-inf) [4]: 38.7 µg·h/mL
Cmax [4]: 4550 ng/mL
half-life [4]: 18.3 h
plasma exposure compared to D-serine ([4]; single 0.25 g oral dose): increased plasma exposure
CL/F [4]: 6.6 L/h
activity at the NMDA receptor (peak current and steady state current) [7]: indistinguishable
Cortex concentration [14]: 754 ng/g
Hippocampus concentration [14]: 674 ng/g
Plasma concentration [14]: 19200 ng/mL
Accumulation ([15]; following 7 consecutive days of administration): minimal to modest
dose-exposure relationship ([15]; following single and multiple doses (at Day 7)): linear
AUC(0-inf) ([15]; 1 g): 263 µg·h/mL
AUC(0-t) ([15]; 1 g): 175 µg·h/mL
Cmax ([15]; 1 g): 25300 ng/mL
Tmax ([15]; 1 g): 1.5 h
AUC(0-inf) ([15]; 2 g): 522 µg·h/mL
AUC(0-t) ([15]; 2 g): 333 µg·h/mL
Cmax ([15]; 2 g): 52000 ng/mL
Tmax ([15]; 2 g): 1 h
AUC(0-inf) ([15]; 4 g): 911 µg·h/mL
AUC(0-t) ([15]; 4 g): 539 µg·h/mL
Cmax ([15]; 4 g): 70800 ng/mL
Tmax ([15]; 4 g): 2 h
AUCinf [8]: 383 µg·h/mL
Cmax [8]: 186000 ng/mL
Tmax [8]: 0.667 h
SMILES: [2H][C@@](N)(CO)C(=O)O [Compound 100, (2R)-2-amino-2-deutero-3-hydroxy-propanoic acid]
adverse events related to Compound 100 [11]: mild headache (1 subject) and fatigue (2 subjects)
serious adverse events [11]: no serious adverse events were reported
tolerability [11]: generally well tolerated
effects on kidney function (serum and urine kidney function parameters) ([13]; SAD and MAD studies): no apparent Compound 100-related effects on kidney function
effects on other clinical laboratory parameters ([13]; SAD and MAD studies): no clinically significant Compound 100-related effects
most common treatment-related adverse event ([13]; SAD and MAD studies): headache
neurocognitive effects (CogScreen) ([13]; SAD and MAD studies, exploratory): no evidence of adverse effects on neurocognitive functioning
tolerability ([13]; SAD and MAD studies, healthy volunteers): well-tolerated
Compound 100-related adverse events ([13]; highest once-daily dose of 4 g, both studies): no Compound 100-related adverse events were reported
levels of biomarkers of nephrotoxicity [1]: did not increase
exposure as measured by AUC and Cmax, compared with non-deuterated D-serine [6, 17]: greater
gross signs of nephrotoxicity [6, 17]: not Compound 100
changes in BUN or creatinine [6]: minimal changes
